{
  "source": "patent US20180117110A1",
  "about": "“METHOD OF TREATING CANCER” (THE WALTER AND ELIZA HALL INSTITUTE OF MEDICAL RESEARCH, priority 2014, published 2018)",
  "key": {"[1]": {"test_system": "Bone Marrow Derived Macrophages (BMDM)", "test": "BMDM cell viability (CellTiter-Glo) after SMAC mimetic Compound A ± p38 or MK2 inhibitor", "format": "cell-based, mouse", "settings": "inhibitor 30 min then 500 nM Compound A, 24 h, dose dependent (FIG. 1C)", "procedure": "FIG. 1: p38 inhibitors increase TNFα production and cell death induced by SMAC mimetics. A. Bone Marrow Derived Macrophages (BMDM) were pretreated ±1 μM of the indicated p38 inhibitors for 30 min then treated with 500 nM of SMAC mimetic Compound A (CompA) for 24 h. TNFα production was measured by ELISA of supernatants. B. BMDM were pretreated 500 nM of SMAC mimetic Compound A, GT13072 or birinapant ±1 μM of LY2228820. TNFα production was measured by ELISA of supernatants. N=3 biological repeats and error bars are SEM. C. BMDM were pretreated ± the indicated dose of MK2 inhibitor PF-3644022 and the p38 inhibitor LY2228820, VX-702, TAK-715 or VX-745 for 30 min then treated with 500 nM of SMAC mimetic Compound A. Cell viability was measured after 24 h of treatment using CellTiter-Glo® (CTG) reagent. N=3 biological repeats and error bars are SEM.\nBMDMs from C56/B16, p38α^LysMCre or Mk2^−/− were cultured for 6 days in DMEM+10% FBS (v/v)+20% L929 mouse fibroblasts (a source of macrophage colony stimulating factor), plated and assayed the following day. BMDMs cells were seeded and assayed in the presence of L929 conditioned medium. AML cells were cultured in IMDM +10% FBS (v/v)+2.5 ng/ml of IL-3. NCI-H929 cells were cultured in RPMI+10% FBS (v/v). Cell suspension from breast ER+ patient derived tumours was cultured in mammosphere media. After treatment with SMAC mimetic with or without kinases inhibitors cell viability was measured by staining with propidium iodide (2 μg/mL) or by using CellTiter-Glo® (Promega)."}, "[2]": {"test_system": "Bone Marrow Derived Macrophages (BMDM)", "test": "TNFα production by ELISA of supernatants of BMDM treated with SMAC mimetic ± p38 inhibitors (kinase inhibitors screen)", "format": "cell-based, mouse", "settings": "500 nM SMAC mimetic ± 1 μM LY2228820 (FIG. 1B)", "procedure": "FIG. 1: p38 inhibitors increase TNFα production and cell death induced by SMAC mimetics. A. Bone Marrow Derived Macrophages (BMDM) were pretreated ±1 μM of the indicated p38 inhibitors for 30 min then treated with 500 nM of SMAC mimetic Compound A (CompA) for 24 h. TNFα production was measured by ELISA of supernatants. B. BMDM were pretreated 500 nM of SMAC mimetic Compound A, GT13072 or birinapant ±1 μM of LY2228820. TNFα production was measured by ELISA of supernatants. N=3 biological repeats and error bars are SEM. C. BMDM were pretreated ± the indicated dose of MK2 inhibitor PF-3644022 and the p38 inhibitor LY2228820, VX-702, TAK-715 or VX-745 for 30 min then treated with 500 nM of SMAC mimetic Compound A. Cell viability was measured after 24 h of treatment using CellTiter-Glo® (CTG) reagent. N=3 biological repeats and error bars are SEM. BMDMs from C56/B16, p38α^LysMCre or Mk2^−/− were cultured for 6 days in DMEM+10% FBS (v/v)+20% L929 mouse fibroblasts (a source of macrophage colony stimulating factor), plated and assayed the following day. BMDMs cells were seeded and assayed in the presence of L929 conditioned medium. AML cells were cultured in IMDM +10% FBS (v/v)+2.5 ng/ml of IL-3. […] After treatment with SMAC mimetic with or without kinases inhibitors cell viability was measured by staining with propidium iodide (2 μg/mL) or by using CellTiter-Glo® (Promega). […]"}, "C57BL6 mice": {"test_system": "C57BL6 mice", "test": "Tolerability of SMAC mimetic plus p38 inhibitor in non tumour-bearing mice", "format": "in vivo", "settings": "5 mg/kg GT13072 + 15 mg/kg LY2228820 i.p. (FIG. 7C)", "procedure": "FIG. 7: Mice tolerate administration of birinapant plus p38 inhibitor. A. Mononuclear cells isolated from healthy donor by Ficoll sedimentation were treated for 48 h with indicated drugs. CD34^+ cell death was measured by staining with PI and flow cytometry. For each donor sample, graphs show mean of at least n=2 technical replicates across n=2-5 independent experiments. B and C. C57BL/6 mice were intra-peritoneally injected with vehicle (captisol 6%) or birinapant (B) or GT13072 (C) or LY2228820 or combination of LY2228820 and SM at indicated concentration. Mice received 8 injections twice a week over 4 weeks. Mice were euthanised 2 weeks after the treatment stopped. Graphs show organs, body weights and blood cell populations with 6 mice/group (B), 4 mice/group (C). Error bars are SEM.\nTo assess the safety of SMAC mimetic plus p38 inhibitor C57BL6 mice were injected by intra-peritoneal route twice a week for 4 weeks with either vehicle (6% Captisol) or 15 mg/kg of LY222820 or 5 mg/kg birinapant ±15 mg/kg LY2228820, or 10 mg/kg birinapant±15 mg/kg LY2228820. Another cohort received either vehicle or 5 mg/kg of GT13072, or 15 mg/kg of LY222820 or combination.\n200 μL of blood was collected from the retro-orbital plexus into tubes containing potassium ethylenediaminetetraacetic acid (Sarstedt) and analyzed in an Advia 2120 automated hematologic analyzer (Bayer)."}, "[3]": {"test_system": "low- and intermediate-1-risk Myelodysplastic syndromes", "settings": "oral administration, Phase I/II; cited from earlier work"}, "[4]": {"test_system": "advanced solid tumours and lymphoma", "settings": "intravenous administration, Phase I; cited from earlier work"}, "[5]": {"test_system": "human AML patient samples", "test": "Response of human AML patient samples to Birinapant in vitro", "format": "cell-based"}},
  "data": [
    {"smiles": "CCc1nc(-c2cccc(C)c2)c(-c2ccnc(NC(=O)c3ccccc3)c2)s1", "note": "[TAK-715]", "values": [
      {"measurement": "cell death induced by SMAC mimetics", "setting": "[1]", "value": "dramatically increased cell death"}
    ]},
    {"smiles": "O=c1ncn2nc(Sc3ccc(F)cc3F)ccc2c1-c1c(Cl)cccc1Cl", "note": "[VX-745]", "values": [
      {"measurement": "cell death induced by SMAC mimetics", "setting": "[1]", "value": "dramatically increased cell death"}
    ]},
    {"smiles": "CC(C)(C)Cn1c(N)nc2ccc(-c3[nH]c(C(C)(C)C)nc3-c3ccc(F)cc3)nc21", "note": "[LY2228820]", "values": [
      {"measurement": "TNF production of three different smac-mimetics (CompA, GT13072 and birinapant)", "setting": "[2]", "value": "increased TNF production"},
      {"measurement": "effect of LY2228820 on populations of white blood cells (ADVIA analysis)", "setting": "C57BL6 mice", "value": "nor affect the populations of white blood cells"},
      {"measurement": "effect of LY2228820 on the splenomegaly induced by GT13072", "setting": "C57BL6 mice", "value": "did not even exacerbate the splenomegaly"},
      {"measurement": "cell death induced by SMAC mimetics", "setting": "[1]", "value": "dramatically increased cell death"}
    ]},
    {"smiles": "Cc1ccc(-c2ccc3c(ccc4sc5c(c43)NC[C@@H](C)NC5=O)n2)cn1", "note": "[PF-3644022]", "values": [
      {"measurement": "cell death induced by SMAC mimetics", "setting": "[1]", "value": "dramatically increased cell death"}
    ]},
    {"smiles": "NC(=O)c1ccc(N(C(N)=O)c2c(F)cccc2F)nc1-c1ccc(F)cc1F", "note": "[VX-702]", "values": [
      {"measurement": "cell death induced by SMAC mimetics", "setting": "[1]", "value": "dramatically increased cell death"}
    ]},
    {"smiles": "C[C@@H]1CN(Cc2ccc(F)cc2)[C@@H](C)CN1C(=O)c1cc2c(C(=O)C(=O)N(C)C)cn(C)c2cc1Cl", "note": "[Talmapimod]", "values": [
      {"measurement": "complete remission", "setting": "[3]", "value": "only one patient achieved a complete remission"},
      {"measurement": "tolerability in patients", "setting": "[3]", "value": "well tolerated"}
    ]},
    {"smiles": "CC[C@H](NC(=O)[C@H](C)NC)C(=O)N1C[C@@H](O)C[C@H]1Cc1c(-c2[nH]c3cc(F)ccc3c2C[C@@H]2C[C@H](O)CN2C(=O)[C@H](CC)NC(=O)[C@H](C)NC)[nH]c2cc(F)ccc12", "note": "[Birinapant]", "values": [
      {"measurement": "anti-tumour activity in patients", "setting": "[4]", "value": "evidence of anti-tumour activity"},
      {"measurement": "tolerability in patients", "setting": "[4]", "value": "well tolerated with no dose-limiting toxicities"},
      {"measurement": "response of human AML patient samples to single agent treatment", "setting": "[5]", "value": "some human AML patient samples did not respond"}
    ]}
  ]
}
